Measured values from US20260297081A1, “COMPOUNDS AND METHODS OF TREATING CANCERS” (Cullgen Inc., priority 2023, published 2026).

Target: CDK4 (Homo sapiens, UniProt P11802+Q16531)
Test: CDK4 percentage degradation in Calu-1 cells (Table 6)
Format: cell-based
Set-up: Cells that express cyclin D1-3 and CDK4/6 proteins were treated with heterobifunctional compounds; endogenous in cells; host or cells: Calu-1
Conditions: 16 hours; for inhibition at 0.04 µM: 40 nM; for inhibition at 0.2 µM: 200 nM
How it was run: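 Percentage degradation of Cyclin D1 and CDK4 derived from densitometry of ECL Western blots on lysates of Calu-1 cells. Treatment was 16 h with compound at either 40 nM or 200 nM.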

Chain of CDK4 (P11802 2-303 limits assumed): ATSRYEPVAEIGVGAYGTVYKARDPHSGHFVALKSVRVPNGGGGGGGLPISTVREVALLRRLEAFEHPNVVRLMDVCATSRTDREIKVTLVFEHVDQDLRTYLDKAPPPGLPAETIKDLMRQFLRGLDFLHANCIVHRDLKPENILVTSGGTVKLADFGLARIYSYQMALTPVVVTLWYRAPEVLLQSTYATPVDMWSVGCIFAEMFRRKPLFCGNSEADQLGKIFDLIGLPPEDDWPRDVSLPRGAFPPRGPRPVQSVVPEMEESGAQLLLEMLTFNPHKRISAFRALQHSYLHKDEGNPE
Chain of CDK4 (P24385 whole entry partner): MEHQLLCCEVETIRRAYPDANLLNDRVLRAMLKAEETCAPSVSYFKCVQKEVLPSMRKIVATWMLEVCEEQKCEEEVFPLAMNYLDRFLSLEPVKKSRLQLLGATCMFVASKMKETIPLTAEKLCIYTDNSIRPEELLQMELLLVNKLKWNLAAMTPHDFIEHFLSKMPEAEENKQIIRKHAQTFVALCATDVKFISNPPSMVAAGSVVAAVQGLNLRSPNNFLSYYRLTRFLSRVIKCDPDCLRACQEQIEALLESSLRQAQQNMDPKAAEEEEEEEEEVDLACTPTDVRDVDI
Chain of CDK4 (Q16531 2-1140 limits assumed): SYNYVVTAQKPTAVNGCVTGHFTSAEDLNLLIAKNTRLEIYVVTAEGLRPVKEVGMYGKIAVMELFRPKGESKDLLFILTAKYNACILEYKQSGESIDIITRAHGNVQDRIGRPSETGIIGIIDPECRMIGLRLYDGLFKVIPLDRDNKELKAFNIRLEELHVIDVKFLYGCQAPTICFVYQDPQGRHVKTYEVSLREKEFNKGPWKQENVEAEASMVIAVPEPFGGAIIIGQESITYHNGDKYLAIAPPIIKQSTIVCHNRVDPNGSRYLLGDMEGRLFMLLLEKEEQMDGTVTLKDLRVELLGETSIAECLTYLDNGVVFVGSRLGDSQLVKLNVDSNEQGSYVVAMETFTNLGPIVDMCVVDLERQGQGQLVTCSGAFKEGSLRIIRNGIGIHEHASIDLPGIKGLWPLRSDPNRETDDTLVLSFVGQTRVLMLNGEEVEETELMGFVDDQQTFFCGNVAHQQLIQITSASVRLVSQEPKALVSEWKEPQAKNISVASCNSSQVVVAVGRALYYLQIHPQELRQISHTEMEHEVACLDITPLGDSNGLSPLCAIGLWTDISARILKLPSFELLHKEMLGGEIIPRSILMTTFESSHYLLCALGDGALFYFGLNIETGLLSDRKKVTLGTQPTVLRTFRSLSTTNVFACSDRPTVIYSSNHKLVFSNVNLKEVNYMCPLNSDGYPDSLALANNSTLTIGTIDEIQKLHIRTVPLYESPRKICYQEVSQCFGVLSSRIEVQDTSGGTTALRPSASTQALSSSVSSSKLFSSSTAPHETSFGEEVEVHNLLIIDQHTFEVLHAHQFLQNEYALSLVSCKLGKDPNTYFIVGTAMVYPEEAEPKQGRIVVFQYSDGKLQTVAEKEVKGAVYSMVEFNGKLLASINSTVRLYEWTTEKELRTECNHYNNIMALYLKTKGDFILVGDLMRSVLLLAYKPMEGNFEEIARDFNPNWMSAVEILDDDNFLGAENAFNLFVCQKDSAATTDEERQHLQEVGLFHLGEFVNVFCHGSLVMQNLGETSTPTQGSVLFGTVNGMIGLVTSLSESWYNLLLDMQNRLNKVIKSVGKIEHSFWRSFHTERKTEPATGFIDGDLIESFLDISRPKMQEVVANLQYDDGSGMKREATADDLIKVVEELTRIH

In the case of `CNc1ccc(C(=O)Nc2nc(C3CC3)c(C)s2)c(NCCCCCNC(=O)CN2CCN(c3ccc(Nc4ncc5c(C)c(C(C)=O)c(=O)n(C6CCCC6)c5n4)nc3)CC2)n1` [CPD-56, 2-((5-(2-(4-(6-((6-Acetyl-8-cyclopentyl-5-methyl-7-oxo-7,8-dihydropyrido[2,3-d]pyrimidin-2-yl)amino)pyridin-3-yl)piperazin-1-yl)acetamido)pentyl)amino)-N-(4-cyclopropyl-5-methylthiazol-2-yl)-6-(methylamino)nicotinamide], the inhibition at 0.04 µM is reported as 50 to 80% and the inhibition at 0.2 µM is reported as 50 to 80%.

`[2H]C([2H])([2H])Nc1ccc(C(=O)Nc2cn(C)c(C3CC3)n2)c(NC2CCN(C(=O)CN3CCN(c4ccc(Nc5ncc6c(C)c(C(C)=O)c(=O)n(C7CCCC7)c6n5)nc4)CC3)CC2)n1` [CPD-236, 2-((1-(2-(4-(6-((6-acetyl-8-cyclopentyl-5-methyl-7-oxo-7,8-dihydropyrido[2,3-d]pyrimidin-2-yl)amino)pyridin-3-yl)piperazin-1-yl)acetyl)piperidin-4-yl)amino)-N-(2-cyclopropyl-1-methyl-1H-imidazol-4-yl)-6-((methyl-d3)amino)nicotinamide] gave an inhibition at 0.04 µM of 30 to 50% and an inhibition at 0.2 µM of 50 to 80%.

Work on `CNc1ccc(C(=O)Nc2ccc(N(C)C)nn2)c(NC2CCC(NC(=O)CN3CCN(c4ccc(Nc5ncc6c(C)c(C(C)=O)c(=O)n(C7CCCC7)c6n5)nc4)CC3)CC2)n1` (centres unmarked) [CPD-130, 2-((4-(2-(4-(6-((6-Acetyl-8-cyclopentyl-5-methyl-7-oxo-7,8-dihydropyrido[2,3-d]pyrimidin-2-yl)amino)pyridin-3-yl)piperazin-1-yl)acetamido)cyclohexyl)amino)-N-(6-(dimethylamino)pyridazin-3-yl)-6-(methylamino)nicotinamide] yielded an inhibition at 0.04 µM of 50 to 80% and an inhibition at 0.2 µM of 50 to 80%.

In the case of `CNc1ccc(C(=O)Nc2ccc(N(C)C)nn2)c(N(C)CCCCCNC(=O)CN2CCN(c3ccc(Nc4ncc5c(C)c(C(C)=O)c(=O)n(C6CCCC6)c5n4)nc3)CC2)n1` [CPD-23, 2-((5-(2-(4-(6-((6-Acetyl-8-cyclopentyl-5-methyl-7-oxo-7,8-dihydropyrido[2,3-d]pyrimidin-2-yl)amino)pyridin-3-yl)piperazin-1-yl)acetamido)pentyl)(methyl)amino)-N-(6-(dimethylamino)pyridazin-3-yl)-6-(methylamino)nicotinamide], the inhibition at 0.04 µM is reported as under 30% and the inhibition at 0.2 µM is reported as under 30%.

`[2H]C([2H])([2H])Nc1ccc(C(=O)Nc2cc(C)n(C)n2)c(NC2CN(C(=O)C(F)(F)CN3CCN(c4ccc(Nc5ncc6c(C)c(C(C)=O)c(=O)n(C7CCCC7)c6n5)nc4)CC3)C2)n1` [CPD-233, 2-((1-(3-(4-(6-((6-acetyl-8-cyclopentyl-5-methyl-7-oxo-7,8-dihydropyrido[2,3-d]pyrimidin-2-yl)amino)pyridin-3-yl)piperazin-1-yl)-2,2-difluoropropanoyl)azetidin-3-yl)amino)-N-(1,5-dimethyl-1H-pyrazol-3-yl)-6-((methyl-d3)amino)nicotinamide] was tested, and the inhibition at 0.04 µM was under 30% and the inhibition at 0.2 µM was 30 to 50%.

`CNc1ccc(C(=O)Nc2ccc(C#N)c(C3CC3)n2)c(NC2CC3(CC(NC(=O)CN4CCN(c5ccc(Nc6ncc7c(C)c(C(C)=O)c(=O)n(C8CCCC8)c7n6)nc5)CC4)C3)C2)n1` (centres unmarked) [CPD-132, 2-((6-(2-(4-(6-((6-Acetyl-8-cyclopentyl-5-methyl-7-oxo-7,8-dihydropyrido[2,3-d]pyrimidin-2-yl)amino)pyridin-3-yl)piperazin-1-yl)acetamido)spiro[3.3]heptan-2-yl)amino)-N-(5-cyano-6-cyclopropylpyridin-2-yl)-6-(methylamino)nicotinamide] gave an inhibition at 0.04 µM of under 30% and an inhibition at 0.2 µM of 50 to 80%.

Work on `CNc1ccc(C(=O)Nc2cc(C)[nH]n2)c(NC2CC3(CC(NC(=O)CN4CCN(c5ccc(Nc6ncc7c(C)c(C(C)=O)c(=O)n(C8CCCC8)c7n6)nc5)CC4)C3)C2)n1` (centres unmarked) [CPD-92, 2-((6-(2-(4-(6-((6-Acetyl-8-cyclopentyl-5-methyl-7-oxo-7,8-dihydropyrido[2,3-d]pyrimidin-2-yl)amino)pyridin-3-yl)piperazin-1-yl)acetamido)spiro[3.3]heptan-2-yl)amino)-N-(5-methyl-1H-pyrazol-3-yl)-6-(methylamino)nicotinamide] yielded an inhibition at 0.04 µM of under 30% and an inhibition at 0.2 µM of under 30%.

For `CC(=O)c1c(C)c2cnc(Nc3ccc(N4CCN(CC(=O)NCC5CC(Nc6nc(C7CC7)ccc6C(=O)Nc6cc(C)n(C)n6)C5)CC4)cn3)nc2n(C2CCCC2)c1=O` (centres unmarked) [CPD-213, 2-((3-((2-(4-(6-((6-acetyl-8-cyclopentyl-5-methyl-7-oxo-7,8-dihydropyrido[2,3-d]pyrimidin-2-yl)amino)pyridin-3-yl)piperazin-1-yl)acetamido)methyl)cyclobutyl)amino)-6-cyclopropyl-N-(1,5-dimethyl-1H-pyrazol-3-yl)nicotinamide], the inhibition at 0.04 µM was 30 to 50% and the inhibition at 0.2 µM was 50 to 80%.

Work on `CNc1ccc(C(=O)Nc2ccc(C)c(=O)[nH]2)c(NCCCCCNC(=O)CN2CCN(c3ccc(Nc4ncc5c(C)c(C(C)=O)c(=O)n(C6CCCC6)c5n4)nc3)CC2)n1` [CPD-123, 2-((5-(2-(4-(6-((6-Acetyl-8-cyclopentyl-5-methyl-7-oxo-7,8-dihydropyrido[2,3-d]pyrimidin-2-yl)amino)pyridin-3-yl)piperazin-1-yl)acetamido)pentyl)amino)-N-(5-methyl-6-oxo-1,6-dihydropyridin-2-yl)-6-(methylamino)nicotinamide] yielded an inhibition at 0.04 µM of under 30% and an inhibition at 0.2 µM of 50 to 80%.

With `CNc1ccc(C(=O)NC2CC3(C2)CC(N(C)C)C3)c(NCCCCCNC(=O)CN2CCN(c3ccc(Nc4ncc5c(C)c(C(C)=O)c(=O)n(C6CCCC6)c5n4)nc3)CC2)n1` (centres unmarked) [CPD-67, 2-((5-(2-(4-(6-((6-Acetyl-8-cyclopentyl-5-methyl-7-oxo-7,8-dihydropyrido[2,3-d]pyrimidin-2-yl)amino)pyridin-3-yl)piperazin-1-yl)acetamido)pentyl)amino)-N-(6-(dimethylamino)spiro[3.3]heptan-2-yl)-6-(methylamino)nicotinamide] the inhibition at 0.04 µM was under 30% and the inhibition at 0.2 µM was under 30%.

Work on `CC(=O)c1c(C)c2cnc(Nc3ccc(N4CCN(CC(=O)NCCCNc5nc(C)ccc5C(=O)Nc5nc(C)c(C)s5)CC4)cn3)nc2n(C2CCCC2)c1=O` [CPD-1, 2-((3-(2-(4-(6-((6-Acetyl-8-cyclopentyl-5-methyl-7-oxo-7,8-dihydropyrido[2,3-d]pyrimidin-2-yl)amino)pyridin-3-yl)piperazin-1-yl)acetamido)propyl)amino)-N-(4,5-dimethylthiazol-2-yl)-6-methylnicotinamide] yielded an inhibition at 0.04 µM of under 30% and an inhibition at 0.2 µM of 30 to 50%.

`CNc1ccc(C(=O)Nc2ccc(Cl)c(C3CC3)n2)c(NCCCCCNC(=O)CN2CCN(c3ccc(Nc4ncc5c(C)c(C(C)=O)c(=O)n(C6CCCC6)c5n4)nc3)CC2)n1` [CPD-112, 2-((5-(2-(4-(6-((6-Acetyl-8-cyclopentyl-5-methyl-7-oxo-7,8-dihydropyrido[2,3-d]pyrimidin-2-yl)amino)pyridin-3-yl)piperazin-1-yl)acetamido)pentyl)amino)-N-(5-chloro-6-cyclopropylpyridin-2-yl)-6-(methylamino)nicotinamide] showed an inhibition at 0.04 µM of under 30% and an inhibition at 0.2 µM of under 30%.

`CNc1ccc(C(=O)Nc2ccc(OC)c(C)n2)c(NC2CC3(CC(NC(=O)CN4CCN(c5ccc(Nc6ncc7c(C)c(C(C)=O)c(=O)n(C8CCCC8)c7n6)nc5)CC4)C3)C2)n1` (centres unmarked) [CPD-220, 2-((6-(2-(4-(6-((6-acetyl-8-cyclopentyl-5-methyl-7-oxo-7,8-dihydropyrido[2,3-d]pyrimidin-2-yl)amino)pyridin-3-yl)piperazin-1-yl)acetamido)spiro[3.3]heptan-2-yl)amino)-N-(5-methoxy-6-methylpyridin-2-yl)-6-(methylamino)nicotinamide] showed an inhibition at 0.04 µM of 30 to 50% and an inhibition at 0.2 µM of 50 to 80%.

`CC(=O)c1c(C)c2cnc(Nc3ccc(N4CCN(CC(=O)NC5CC6(C5)CC(Nc5nc(C(F)(F)F)ccc5C(=O)Nc5cccc(C7CC7)n5)C6)CC4)cn3)nc2n(C2CCCC2)c1=O` (centres unmarked) [CPD-121, 2-((6-(2-(4-(6-((6-Acetyl-8-cyclopentyl-5-methyl-7-oxo-7,8-dihydropyrido[2,3-d]pyrimidin-2-yl)amino)pyridin-3-yl)piperazin-1-yl)acetamido)spiro[3.3]heptan-2-yl)amino)-N-(6-cyclopropylpyridin-2-yl)-6-(trifluoromethyl)nicotinamide] was tested, and the inhibition at 0.04 µM was under 30% and the inhibition at 0.2 µM was 30 to 50%.

Molecule `CNc1ccc(C(=O)Nc2cn(C)c(C)n2)c(NC2CC3(CC(NC(=O)CN4CCN(c5ccc(Nc6ncc7c(C)c(C(C)=O)c(=O)n(C8CCCC8)c7n6)nc5)CC4)C3)C2)n1` (centres unmarked) [CPD-179, 2-((6-(2-(4-(6-((6-acetyl-8-cyclopentyl-5-methyl-7-oxo-7,8-dihydropyrido[2,3-d]pyrimidin-2-yl)amino)pyridin-3-yl)piperazin-1-yl)acetamido)spiro[3.3]heptan-2-yl)amino)-N-(1,2-dimethyl-1H-imidazol-4-yl)-6-(methylamino)nicotinamide] has an inhibition at 0.04 µM of 50 to 80% and an inhibition at 0.2 µM of 50 to 80%.

In the case of `CNc1ccc(C(=O)Nc2cccc(C3CC3)n2)c(NC[C@H]2CC[C@H](NC(=O)CN3CCN(c4ccc(Nc5ncc6c(C)c(C(C)=O)c(=O)n(C7CCCC7)c6n5)nc4)CC3)CC2)n1` [CPD-154, 2-(((trans-4-(2-(4-(6-((6-acetyl-8-cyclopentyl-5-methyl-7-oxo-7,8-dihydropyrido[2,3-d]pyrimidin-2-yl)amino)pyridin-3-yl)piperazin-1-yl)acetamido)cyclohexyl)methyl)amino)-N-(6-cyclopropylpyridin-2-yl)-6-(methylamino)nicotinamide], the inhibition at 0.04 µM is reported as under 30% and the inhibition at 0.2 µM is reported as under 30%.
